Test results: patent US10227334B2, “Estrogen receptor modulators and uses thereof” (Genentech, Inc., priority 2013, dated 2019)

Columns and labels:
MCF-7 cells = assay: Breast cancer cell viability assay (MCF7, CellTiter-Glo); details: for IC50: read-out: MCF7 Viability Assay: IC50, 5 days' compound exposure; for MCF7 Viability Assay: % Viability relative to Fulvestrant: 5 days' compound exposure
ER-α = ER-α (Homo sapiens (Human), UniProt P03372); assay: Breast cancer cell ER-α In-Cell Western assay (SP1); type: cell-based; details: MCF7 cells, 4 hours post compound addition
ER-α, sequence (P03372 whole entry): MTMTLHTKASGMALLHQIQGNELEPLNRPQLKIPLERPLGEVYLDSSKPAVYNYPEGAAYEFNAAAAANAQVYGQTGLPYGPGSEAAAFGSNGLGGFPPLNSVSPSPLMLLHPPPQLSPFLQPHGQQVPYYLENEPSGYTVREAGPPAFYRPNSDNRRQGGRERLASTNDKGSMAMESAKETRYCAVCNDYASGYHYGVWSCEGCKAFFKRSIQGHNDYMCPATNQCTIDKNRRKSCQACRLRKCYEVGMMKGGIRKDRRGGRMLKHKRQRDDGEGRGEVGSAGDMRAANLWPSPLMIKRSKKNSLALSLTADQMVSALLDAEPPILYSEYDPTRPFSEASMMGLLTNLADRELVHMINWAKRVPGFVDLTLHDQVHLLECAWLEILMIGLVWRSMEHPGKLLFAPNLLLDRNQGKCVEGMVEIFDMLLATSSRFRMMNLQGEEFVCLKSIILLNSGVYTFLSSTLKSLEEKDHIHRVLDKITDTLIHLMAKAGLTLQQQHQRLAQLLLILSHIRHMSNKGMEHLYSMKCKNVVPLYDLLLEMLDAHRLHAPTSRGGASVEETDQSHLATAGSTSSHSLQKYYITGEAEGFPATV
Method: MCF7 cells were trypsinized and washed twice in Phenol Red Free RPMI containing 5% Charcoal Dextran Stripped serum with 20 mM HEPES and NEAA, then adjusted to a concentration of 200,000 cells per mL with the same medium. Next, 16 μL of the cell suspension (3200 cells) was added to each well of a poly-D-lysine coated 384 well plate, and the cells were incubated at 37° C. over 4 days to allow the cells to adhere and grow. […] At 4 hours post compound addition, the cells were fixed by adding 16 μL of 30% formalin to the 32 μL of cells and compound (10% formalin final concentration) for 20 minutes. Cells were then washed twice with PBS Tween 0.1% and then permeabilized in PBS 0.1% Triton (50 μl/well) for additional 15 minutes. The PBS 0.1% triton was decanted, and the cells were washed: LI-COR blocking buffer (50 μL/well) was added, the plate was spun at 3000 rpm, and then the blocking buffer was decanted. Additional LI-COR blocking buffer (50 μL/well) was added, and the cells were incubated overnight at 4° C. The blocking buffer was decanted, and the cells were incubated overnight at 4° C. with SP1 (Thermo Scientific) anti-ER rabbit monoclonal antibody diluted 1:1000 in LI-COR blocking buffer/0.1% Tween-20. Wells which were treated with blocking buffer with Tween but no antibody were used as a background control. Wells were washed twice with PBS Tween 0.1% to remove free SP1 antibodies, and the cells were incubated at room temp for 60-90 minutes in LI-COR goat anti-rabbit IRDye™ 800CW (1:1000) and DRAQ5 DNA dye (1:10000 of 5 mM stock solution) diluted in LI-COR blocking buffer containing 0.1% Tween-20 and 0.01% SDS. Cells were then washed with 0.1% Tween-20/PBS three times. Plates were scanned on a LI-COR Odyssey infrared imaging system. Integrated intensities in the 800 nm channel and 700 nm channel were measured to determine levels of ER-α and DNA respectively. Percent ER levels were determined as follows: (Integrated intensity 800 nm sample/integrated intensity 700 nm sample)/(Integrated intensity 800 nm untreated cells/integrated intensity 700 nm untreated cells)×100=% ER-α levels.

[1] = tested on: tamoxifen resistant MCF-7 tumors; assay: Breast cancer model: xenograft assay (MCF-7 derivative, tamoxifen resistant); type: in vivo; details: female nu/nu mice
Method: Female nu/nu mice (with supplemental 17-β Estradiol pellets; 0.72 mg; 60 day slow release) bearing MCF-7 tumors (mean tumor volume 200 mm^3) were treated with Tamoxifen (citrate) by oral gavage. Tumor volume (length×width^2/2) and body weight were monitored twice weekly. Following a significant anti-tumor response in which tumor volume remained static, evident tumor growth was first observed at approximately 100 days of treatment. At 120 days of treatment, tamoxifen dose was increased. Rapidly growing tumors were deemed tamoxifen resistant and selected for in vivo passage into new host animals. Tumor Fragments (˜100 mm^3/animal) from the tamoxifen resistant tumors were subcutaneously implanted into the right flank of female nu/nu mice (with 17-β Estradiol pellets (0.72 mg; 60 day slow release)). Passaged tumors were maintained under constant Tamoxifen selection, and Tumor volume (length×width^2/2) was monitored weekly. When tumor volume reached ˜150-250 mm^3, animals were randomized into treatment groups (mean tumor volume 200 mm^3) and tamoxifen treatment was terminated (except for a tamoxifen control arm). Animals were treated with Vehicle or Compound daily for 4 weeks. Tumor volume and body weight were monitored twice weekly for the duration of the study. At the conclusion of the treatment period; plasma and tumor samples were taken for pharmacokinetic and pharmacodynamic analyses, respectively.

Compound	IC50 (MCF-7 cells)	MCF7 Viability Assay: % Viability relative to Fulvestrant (MCF-7 cells)	ER-α In-Cell Western Assay (SP1): % ER-α remaining relative to Fulvestrant (ER-α)	Number of Tumors Smaller at t = 27 days than at Start of study (t = 0 days) ([1]; 10 mpk oral dose each day)	Number of Tumors Smaller at t = 27 days than at Start of study (t = 0 days) ([1]; 30 mpk oral dose each day)	Number of Tumors Smaller at t = 27 days than at Start of study (t = 0 days) ([1]; 100 mpk oral dose each day)	IC50 (ER-α)
CC1=C(c2cccc(O)c2)[C@@H](c2ccc(OCCN3CC(CF)C3)cc2)Oc2ccc(O)cc21 [Example 2, (R)-2-(4-(2-(3-(Fluoromethyl)azetidin-1-yl)ethoxy)phenyl)-3-(3-hydroxyphenyl)-4-methyl-2H-chromen-6-ol]	4.3 nM						
CC1=C(c2cccc(O)c2)C(c2ccc(OC[C@H](C)N3CC[C@@H](F)C3)cc2)Oc2ccc(O)cc21 (stereo partly drawn) [2-(4-((S)-2-((R)-3-fluoropyrrolidin-1-yl)propoxy)phenyl)-3-(3-hydroxyphenyl)-4-methyl-2H-chromen-6-ol]		16%	8%				
CC1=C(c2cccc(O)c2)C(c2ccc(OCCN3CCC3)cc2)Oc2ccc(O)cc21 (centres unmarked) [2-(4-(2-(azetidin-1-yl)ethoxy)phenyl)-3-(3-hydroxyphenyl)-4-methyl-2H-chromen-6-ol]		25%	24%				
CC1=C(c2cccc(O)c2)C(c2ccc(OC[C@H](C)N3CCC3)cc2)Oc2ccc(O)cc21 (stereo partly drawn) [2-(4-((S)-2-(azetidin-1-yl)propoxy)phenyl)-3-(3-hydroxyphenyl)-4-methyl-2H-chromen-6-ol]		30%	33%				
CC1=C(c2cccc(O)c2)C(c2ccc(OCCN3CC(C)C3)cc2)Oc2ccc(O)cc21 (racemic) [Example 4, 3-(3-Hydroxyphenyl)-4-methyl-2-(4-(2-(3-methylazetidin-1-yl)ethoxy)phenyl)-2H-chromen-6-ol]		13%	14%				
CC1=C(c2cccc(O)c2)[C@H](c2ccc(OC[C@H](C)N3CC[C@@H](C)C3)cc2)Oc2ccc(O)cc21 [(S)-3-(3-Hydroxyphenyl)-4-methyl-2-(4-((S)-2-((R)-3-methylpyrrolidin-1-yl)propoxy)phenyl)-2H-chromen-6-ol]	0.13 nM	8%		0/8	1/8	1/8	0.11 nM
CC1=C(c2cccc(O)c2)C(c2ccc(OCCN3CC(CF)C3)cc2)Oc2ccc(O)cc21 (racemic) [Example 1, (±)-2-(4-(2-(3-(Fluoromethyl)azetidin-1-yl)ethoxy)phenyl)-3-(3-hydroxyphenyl)-4-methyl-2H-chromen-6-ol]	0.21 nM						
CC1=C(c2cccc(O)c2)[C@H](c2ccc(OCCN3CC(CF)C3)cc2)Oc2ccc(O)cc21 [Example 3, (S)-2-(4-(2-(3-(fluoromethyl)azetidin-1-yl)ethoxy)phenyl)-3-(3-hydroxyphenyl)-4-methyl-2H-chromen-6-ol]	0.07 nM			0/5	2/8	5/8	
